Tests used:
Details in all cases: incubation time: 72 h
HCC1937 [1] = assay: drug sensitivity score (DSS), CellTox Green (DSS (AUC-based score)); higher = stronger drug effect (viability inhibition or cytotoxicity); extreme values may be limits of the assay
Method in brief: (§1)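 The drug sensitivity score was computed from the area under the fitted dose-response curve. Breast cancer cell lines in 20 µl suspension went into 384-well plates holding compound at 5 concentrations (10-fold steps over a 10,000-fold, compound-specific range) for 72 h of incubation. CellTox Green fluorescence (485/520 nm) was read before CellTiter-Glo luminescence, the latter after 10 min at room temperature, and each plate was normalised to 0.1 % DMSO and a positive kill control.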

Hs578T [2] = assay: as above
Method in brief: as §1

MDA-MB-231 [3] = assay: normalised viability (% of control), CellTiter-Blue; higher = more viable cells (about 100 = DMSO control)
Method in brief: (§2)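 Compound dissolved in 5 µl medium was pre-loaded into 384-well plates, and breast cancer cell lines in 20 µl suspension were seeded on top and incubated 72 h. After adding 2.5 µl CellTiter-Blue reagent for 2 h at 37 °C, fluorescence was read at 560/590 nm. Plates were normalised to vehicle (100) and a positive kill control (0), with Z'-factor quality control. Each value is normalised viability at a single listed concentration from the series.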

BT-549 [4] = assay: as above
Method in brief: as §2

CAL-148 [5] = assay: as above
Method in brief: as §2

MDA-MB-468 [6] = assay: as above
Method in brief: as §2

HCC1143 [7] = assay: as above
Method in brief: as §2

Hs578T [8] = assay: as above
Method in brief: as §2

DU-4475 [9] = assay: as above
Method in brief: as §2

HCC1599 [10] = assay: as above
Method in brief: as §2

CAL-51 [11] = assay: as above
Method in brief: as §2

MDA-MB-231 [12] = assay: normalised viability (% of control), CellTiter-Blue; higher = more viable cells (about 100 = DMSO control); remark: listed apart in the source
Experimental: (§3)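 DSRT, CellTiter-Blue viability, 72 h incubation. Signal is normalised to DMSO and benzethonium chloride controls. Value is the normalised response at dose 3.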

MDA-MB-453 = assay: as above
Experimental: as §3

BT-549 [13] = assay: as above; remark: listed apart in the source
Experimental: as §3

SK-BR-3 = assay: as above
Experimental: as §3

HDQ-P1 = assay: as above
Experimental: as §3

BT-474 = assay: as above
Experimental: as §3

MFM-223 = assay: as above
Experimental: as §3

CAL-85-1 = assay: as above
Experimental: as §3

CAL-148 [14] = assay: as above; remark: listed apart in the source
Experimental: as §3

MDA-MB-468 [15] = assay: as above; remark: listed apart in the source
Experimental: as §3

HCC1937 [16] = assay: as above
Experimental: as §3

HCC1143 [17] = assay: as above; remark: listed apart in the source
Experimental: as §3

Hs578T [18] = assay: as above; remark: listed apart in the source
Experimental: as §3

DU-4475 [19] = assay: as above; remark: listed apart in the source
Experimental: as §3

HCC1599 [20] = assay: as above; remark: listed apart in the source
Experimental: as §3

MDA-MB-436 = assay: as above
Experimental: as §3

CAL-51 [21] = assay: as above; remark: listed apart in the source
Experimental: as §3

CAL-120 = assay: as above
Experimental: as §3

In the case of `CN(c1ccccc1CNc1nc(Nc2ccc3c(c2)CC(=O)N3)ncc1C(F)(F)F)S(C)(=O)=O`, the drug sensitivity score (HCC1937 [1]) is reported as 0 and the drug sensitivity score (Hs578T [2]) is reported as 10.4.
`COc1ncc(-c2ccc3nccc(-c4ccnnc4)c3c2)cc1NS(=O)(=O)c1ccc(F)cc1F` showed a normalised viability (MDA-MB-231 [3]; 1 nM) of 96.2%, a normalised viability (MDA-MB-231 [3]; 100 nM) of 41.2% and a normalised viability (MDA-MB-231 [3]; 1000 nM) of 23.7%. The normalised viability (BT-549 [4]; 1 nM) was 88%, the normalised viability (BT-549 [4]; 100 nM) was 29.4% and the normalised viability (BT-549 [4]; 1000 nM) was 14.7%. The normalised viability (CAL-148 [5]; 0.3 nM) was 88.2%, the normalised viability (CAL-148 [5]; 3 nM) was 96.4% and the normalised viability (CAL-148 [5]; 10 nM) was 85.4%. The normalised viability (MDA-MB-468 [6]; 1 nM) was 92.9%, the normalised viability (MDA-MB-468 [6]; 100 nM) was 34.3% and the normalised viability (MDA-MB-468 [6]; 1000 nM) was 7.54%. For the same molecule, the normalised viability (HCC1143 [7]; 1 nM) was 72.4%, the normalised viability (HCC1143 [7]; 100 nM) was 35.4% and the normalised viability (HCC1143 [7]; 1000 nM) was 16.5%. For the same molecule, the normalised viability (Hs578T [8]; 1 nM) was 107%, the normalised viability (Hs578T [8]; 100 nM) was 33.5% and the normalised viability (Hs578T [8]; 1000 nM) was 9.34%. For the same molecule, the normalised viability (DU-4475 [9]; 0.3 nM) was 87.5%, the normalised viability (DU-4475 [9]; 3 nM) was 94.4% and the normalised viability (DU-4475 [9]; 10 nM) was 82.1%. It also gave a normalised viability (HCC1599 [10]; 1 nM) of 88%, a normalised viability (HCC1599 [10]; 100 nM) of 34.5% and a normalised viability (HCC1599 [10]; 1000 nM) of 29.3%. For the same molecule, the normalised viability (CAL-51 [11]; 0.3 nM) was 93.7%, the normalised viability (CAL-51 [11]; 3 nM) was 75.3% and the normalised viability (CAL-51 [11]; 10 nM) was 56.5%. For the same molecule, the normalised viability (MDA-MB-231 [12]; 10 nM) was 80%, the normalised viability (MDA-MB-453; 1 nM) was 89.3% and the normalised viability (BT-549 [13]; 10 nM) was 95.9%. It also gave a normalised viability (SK-BR-3; 10 nM) of 32.7%, a normalised viability (HDQ-P1; 1 nM) of 97.9% and a normalised viability (BT-474; 10 nM) of 64.7%. It also gave a normalised viability (MFM-223; 10 nM) of 53.1%, a normalised viability (CAL-85-1; 1 nM) of 88.8% and a normalised viability (CAL-148 [14]; 1 nM) of 111%. For the same molecule, the normalised viability (MDA-MB-468 [15]; 10 nM) was 86.2%, the normalised viability (HCC1937 [16]; 10 nM) was 78.5% and the normalised viability (HCC1143 [17]; 10 nM) was 68.2%. For the same molecule, the normalised viability (Hs578T [18]; 10 nM) was 76.8%, the normalised viability (DU-4475 [19]; 1 nM) was 88.1% and the normalised viability (HCC1599 [20]; 10 nM) was 57.1%. It also gave a normalised viability (MDA-MB-436; 10 nM) of 83%, a normalised viability (CAL-51 [21]; 1 nM) of 85.7% and a normalised viability (CAL-120; 10 nM) of 60.2%. It also gave a drug sensitivity score (HCC1937 [1]) of 5.84 and a drug sensitivity score (Hs578T [2]) of 3.92.
Molecule `Nc1nccc(-c2c(-c3ccc(F)cc3)ncn2C2CCCCC2)n1` has a drug sensitivity score (HCC1937 [1]) of 0 and a drug sensitivity score (Hs578T [2]) of 0.
In the case of `O=P(O)(NCCCl)NCCCl` [Ifosfamide mustard], the normalised viability (MDA-MB-231 [3]; 10 nM) is reported as 108%, the normalised viability (MDA-MB-231 [3]; 1000 nM) is reported as 124% and the normalised viability (MDA-MB-231 [3]; 10000 nM) is reported as 86.6%. It also gave a normalised viability (BT-549 [4]; 10 nM) of 87.2%, a normalised viability (BT-549 [4]; 1000 nM) of 91% and a normalised viability (BT-549 [4]; 10000 nM) of 107%. It also gave a normalised viability (CAL-148 [5]; 3 nM) of 96.8%, a normalised viability (CAL-148 [5]; 30 nM) of 103% and a normalised viability (CAL-148 [5]; 100 nM) of 102%. The normalised viability (MDA-MB-468 [6]; 10 nM) was 98.5%, the normalised viability (MDA-MB-468 [6]; 1000 nM) was 93.9% and the normalised viability (MDA-MB-468 [6]; 10000 nM) was 86.9%. It also gave a normalised viability (HCC1143 [7]; 10 nM) of 99.6%, a normalised viability (HCC1143 [7]; 1000 nM) of 99.8% and a normalised viability (HCC1143 [7]; 10000 nM) of 97.5%. For the same molecule, the normalised viability (Hs578T [8]; 10 nM) was 106%, the normalised viability (Hs578T [8]; 1000 nM) was 102% and the normalised viability (Hs578T [8]; 10000 nM) was 112%. It also gave a normalised viability (DU-4475 [9]; 3 nM) of 92.4%, a normalised viability (DU-4475 [9]; 30 nM) of 99.6% and a normalised viability (DU-4475 [9]; 100 nM) of 95.7%. It also gave a normalised viability (HCC1599 [10]; 10 nM) of 96.2%, a normalised viability (HCC1599 [10]; 1000 nM) of 106% and a normalised viability (HCC1599 [10]; 10000 nM) of 95.6%. For the same molecule, the normalised viability (CAL-51 [11]; 3 nM) was 106%, the normalised viability (CAL-51 [11]; 30 nM) was 98.3% and the normalised viability (CAL-51 [11]; 100 nM) was 105%. The normalised viability (MDA-MB-231 [12]; 100 nM) was 95.6%, the normalised viability (MDA-MB-453; 10 nM) was 106% and the normalised viability (BT-549 [13]; 100 nM) was 106%. For the same molecule, the normalised viability (SK-BR-3; 100 nM) was 86.2%, the normalised viability (HDQ-P1; 10 nM) was 122% and the normalised viability (BT-474; 100 nM) was 112%. It also gave a normalised viability (MFM-223; 100 nM) of 95.2%, a normalised viability (CAL-85-1; 10 nM) of 101% and a normalised viability (CAL-148 [14]; 10 nM) of 104%. It also gave a normalised viability (MDA-MB-468 [15]; 100 nM) of 100%, a normalised viability (HCC1937 [16]; 100 nM) of 100% and a normalised viability (HCC1143 [17]; 100 nM) of 116%. The normalised viability (Hs578T [18]; 100 nM) was 72.2%, the normalised viability (DU-4475 [19]; 10 nM) was 99.5% and the normalised viability (HCC1599 [20]; 100 nM) was 117%. It also gave a normalised viability (MDA-MB-436; 100 nM) of 98.3%, a normalised viability (CAL-51 [21]; 10 nM) of 107% and a normalised viability (CAL-120; 100 nM) of 92.3%.

— the supplement of paper PMC4862054
